# Source: patent US20030113330A1, “Methods for treating pulmonary fibrosis” (priority 1999, published 2003)
# Entries after “also recorded” stand apart in the source; their conditions may differ.
# Columns and labels:
# A549 cells [1] = experiment: FAS-induced apoptosis (activating anti-FAS antibody CH-11) in A549 cells, ISEL / nuclear fragmentation; format: cell-based, human; details: for inhibition of Fas-induced apoptosis of A549 cells: lisinopril 500 ng/ml
# Description: Cell Culture. […] Cells were seeded on 12 mm sterile glass cover slips in 24-well chambers at a density of 20,000 cells per well.
# Fluorescence Detection of Apoptosis. […] J. Physiol. […] In these assays detached cells were retained by centrifugation of the 24-well culture vessels during fixation with 70% ethanol. In situ end-labeling of fragmented DNA (ISEL) was conducted as described in Gorczyka et al., Canc. Res. 53:1945-1951 (1993). Briefly, ethanol was removed by rinsing cover slips in distilled water for at least 10 minutes. […] The sections were rinsed thoroughly five times with Buffer A and three additional times in 0.5 M PBS. Incorporated bio-UTP was detected by incubation for one hour at 37° C. with avidin-rhodamine; the cover slips were then rinsed in distilled water three times and mounted under Fluoromount Solution (Southern Biotechnology Associates, Birmingham, Ala.).
# Spontaneous or stimulated apoptosis was quantitated as described in Uhal et al., Am. J. Physiol. 269:L819-L828 (1995), in the human lung epithelial cell line A549 by fluorescence detection of chromatin condensation and nuclear fragmentation. The human lung epithelial cell line A549 was cultured on glass cover slips as described in Uhal, et al., Am. J. Physiol. 269:L819-L828 (1995). At the end of the test period, detached cells were retained by centrifuging the culture vessel during fixation of cells in 70% ethanol. Fixed cells were incubated for 30 minutes with 5 ug/ml propidium iodide (PI) in PBS containing DNAse-free RNAse; under these conditions, red fluorescence (>570 nm) is specific for DNA. As in Uhal et al., Am. J. Physiol. 269:L819-L828 (1995), apoptotic cells were identified by the presence of discrete nuclear fragments containing condensed chromatin. Human lung A549 cells were cultured for 20 h in the presence of equivalent concentrations (500 ng/ml) of monoclonal antibody CH-11 (FAS mAb), purified IgM fraction of nonimmune mouse immunoglobulins (IgM), monoclonal antibody 5F-7 (mAb2), and monoclonal antibody 5F-9 (mAb3). Apoptotic cells were scored by the nuclear morphology assay discussed above. A significant difference (p<0.01 compared to control (no additives)), was observed between the means±S.E.M. (at least 4 determinations per condition) of the cells exposed to FAS mAb as compared to the control or other antibody treatments as determined by ANOVA and Dunnett's test. […] J. Physiol.
# Ethanol-fixed A549 cells on glass cover slips were subjected to ISEL labeling of fragmented DNA. DNA fragments labeled with biotinylated UTP were detected with rhodamine-conjugated avidin. A549 cells were exposed to either 500 ng/ml anti-FAS antibody (CH-11) under the same conditions as described above or in the presence of 50 ng/ml captopril. […] ISEL-positive A549 cells were quantitated in at least four separate culture vessels exposed to the anti-FAS antibody CH-11 at 500 ng/ml and/or 50 ng/ml captopril.
# A549 cells were exposed to anti-FAS antibody CH-11 as described above, in the presence of 0.005 ng/ml (5 pg/ml) to 50 ng/ml captopril. Inhibition of apoptosis was detected as the decrease in ISEL-positive cells, scored as described above. […] Inhibition of apoptosis was maximal (approximately 85-90%) at 50 ng/ml captopril, a concentration known to be physiologically attainable in humans and to be maximally inhibitory for ACE. See Duchin et al., Clin. Pharmacokinet. 14:241-259 (1988).
# Cell Culture and Detection of Apoptosis. […] Ibarra-Sunga, C. Gidea, E. Ang, S. Deshmukh, G. Chaudhary, J. Baraboutis, G. Filippatos and B. D. Uhal, Angiotensin II induces apoptosis in human and rat alveolar epithelial cells. Am. J. Physiol. 276:L885-L889 (1999)). […] J. Physiol. […] As in the above Examples, the induction of apoptosis was verified by Annexin V binding and generation of DNA strand breaks […]
# A549 cells [2] = experiment: as above; format: cell-based, human; details: CH-11 200 ng/ml; lisinopril 500 ng/ml, saralasin 5 mg/ml
smiles,measurement,setting,value
COc1ccc2c(c1OCc1ccccc1)C[C@@H](C(=O)O)N(C(=O)C(c1ccccc1)c1ccccc1)C2 [PD126055],inhibition of Fas-induced apoptosis of A549 cells,A549 cells [1],unable to significantly inhibit
CNCC(=O)N[C@@H](CCCN=C(N)N)C(=O)N[C@H](C(=O)N[C@@H](Cc1ccc(O)cc1)C(=O)N[C@H](C(=O)N[C@@H](Cc1cnc[nH]1)C(=O)N1CCC[C@H]1C(=O)N[C@@H](C)C(=O)O)C(C)C)C(C)C [saralasin],inhibition of AEC apoptosis in response to Fas,A549 cells [1]; cell type not given,93%
same,inhibition of FAS-induced apoptosis,A549 cells [2],71%
NCCCC[C@H](N[C@@H](CCc1ccccc1)C(=O)O)C(=O)N1CCC[C@H]1C(=O)O [lisinopril],inhibition at 0.5 µg/mL,"A549 cells [1]; Homo sapiens, A549 or primary rat AEC, lisinopril 0.5 μg/ml, saralasin 5 μg/ml, read-out: maximal inhibition of apoptosis in response to either Fas activator",82%
same,inhibition of Fas-induced apoptosis of A549 cells,A549 cells [1],significantly inhibited
same,inhibition of FAS-induced apoptosis,A549 cells [2],61%
C[C@H](CS)C(=O)N1CCC[C@H]1C(=O)O [captopril],"effect on FAS-induced apoptotic indexes (morphology, DNA fragmentation, ISEL-positive cells)",A549 cells [1]; 50 ng/ml captopril with anti-FAS CH-11 500 ng/ml,completely abrogated; also recorded: essentially abolished
same,IC50,"A549 cells [1]; Homo sapiens, A549, 20 h, read-out: IC50 of inhibition of FAS-induced apoptosis (ISEL labeling)",0.07 ng/mL
same,inhibition at 0.05 µg/mL,"A549 cells [1]; Homo sapiens, A549, read-out: maximal inhibition of apoptosis (decrease in ISEL-positive cells)",85 to 90%
same,concentration at which inhibition of FAS-induced ISEL labeling was measurable,A549 cells [1]; anti-FAS CH-11,5 pg/mL
same,effect on basal ISEL labeling,A549 cells [1]; captopril alone,no significant effect
CCc1nc2c(C)cc(C)nc2n1Cc1ccc(-c2ccccc2-c2nn[nH]n2)cc1 [L158809],inhibition of Fas-induced apoptosis of A549 cells,A549 cells [1],could block
